# In patent US12589094B2, “Concomitant administration of glucocorticoid receptor modulator relacorilant and paclitaxel, a dual substrate of CYP2C8 and CYP3A4” (Corcept Therapeutics Incorporated, priority 2020, dated 2026):
# “And” between values parts separate entries of the source, which are not always exact repeats. Identical values can stand only once. “Also recorded” adds a separate entry of the source.
# Columns and labels:
# [1] = molecular target: T1, CYP3A4 (Homo sapiens, UniProt P08684); conditions: for AUC0-tz, Ratio of Geometric LSMs (%) / AUCinf, Ratio of Geometric LSMs (%) / Cmax, Ratio of Geometric LSMs (%): 100 * Test/Reference, midazolam with 350 mg relacorilant (Day 14) vs midazolam alone (Day 1)
# T1 sequence (P08684 whole entry): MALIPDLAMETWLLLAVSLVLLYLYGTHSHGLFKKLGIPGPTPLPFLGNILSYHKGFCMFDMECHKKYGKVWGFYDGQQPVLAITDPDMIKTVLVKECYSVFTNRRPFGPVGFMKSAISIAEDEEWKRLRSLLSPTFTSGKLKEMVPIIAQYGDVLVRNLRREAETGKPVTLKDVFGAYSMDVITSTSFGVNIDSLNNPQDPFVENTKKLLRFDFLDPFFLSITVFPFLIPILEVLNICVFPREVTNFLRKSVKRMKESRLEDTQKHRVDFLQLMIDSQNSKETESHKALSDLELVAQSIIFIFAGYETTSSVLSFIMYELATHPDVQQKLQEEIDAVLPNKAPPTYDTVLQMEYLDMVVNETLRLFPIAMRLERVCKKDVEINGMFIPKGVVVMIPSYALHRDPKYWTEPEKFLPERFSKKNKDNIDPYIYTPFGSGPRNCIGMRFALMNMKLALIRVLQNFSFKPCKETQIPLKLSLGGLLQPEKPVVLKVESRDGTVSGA
# Experimental: (§1) An open-label, crossover study was conducted in healthy subjects to determine the effect of relacorilant on the plasma exposure of midazolam, a known substrate of CYP3A4, and pioglitazone, a known substrate of CYP2C8. A single dose of midazolam 2.5 mg was administered alone and intensive pharmacokinetic (PK) samples were collected before dosing (0 hour) and at 0.25, 0.5, 1, 1.5, 2, 4, 6, 8, 12, 16, and 24 hours post-dose. […] Relacorilant 350 mg was then administered once a day for 9 consecutive days. On the tenth day of once-daily relacorilant dosing, a single dose of midazolam 2.5 mg was administered in combination with relacorilant 350 mg and intensive PK samples were again collected at pre-dose though 24 hours post-dose.
# [2] = molecular target: T1, CYP3A4; test: clinical; conditions: in vivo, po, 2.5 mg
# Experimental: as §1
# [3] = molecular target: T2, CYP2C8 (Homo sapiens, UniProt P10632); test: Clinical drug-drug interaction study in healthy volunteers: effect of relacorilant on plasma pioglitazone (CYP2C8 substrate)
# T2 sequence (P10632 1-490): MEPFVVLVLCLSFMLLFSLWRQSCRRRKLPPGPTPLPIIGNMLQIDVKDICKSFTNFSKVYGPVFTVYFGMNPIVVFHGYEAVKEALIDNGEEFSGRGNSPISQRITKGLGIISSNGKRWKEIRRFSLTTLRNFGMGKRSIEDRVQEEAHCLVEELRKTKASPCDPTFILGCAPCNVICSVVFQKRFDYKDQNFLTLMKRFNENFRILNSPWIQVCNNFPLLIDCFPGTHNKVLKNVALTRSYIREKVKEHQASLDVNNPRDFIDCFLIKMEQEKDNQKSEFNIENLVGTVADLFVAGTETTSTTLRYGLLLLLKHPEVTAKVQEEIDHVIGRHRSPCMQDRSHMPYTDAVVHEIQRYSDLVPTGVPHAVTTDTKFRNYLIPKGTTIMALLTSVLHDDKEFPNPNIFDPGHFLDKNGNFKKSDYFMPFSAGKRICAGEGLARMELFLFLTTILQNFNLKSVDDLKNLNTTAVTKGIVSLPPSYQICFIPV
# Experimental: An open-label, crossover study was conducted in healthy subjects to determine the effect of relacorilant on the plasma exposure of midazolam, a known substrate of CYP3A4, and pioglitazone, a known substrate of CYP2C8. A single dose of midazolam 2.5 mg was administered alone and intensive pharmacokinetic (PK) samples were collected before dosing (0 hour) and at 0.25, 0.5, 1, 1.5, 2, 4, 6, 8, 12, 16, and 24 hours post-dose. On the following day, a single dose of 15 mg of pioglitazone was administered alone and intensive PK samples were collected before dosing (0 hour) and at 0.5, 1, 1.5, 2, 2.5, 3, 4, 6, 8, 12, 18, 24, 36, 48, 60, and 72 hours post-dose. Relacorilant 350 mg was then administered once a day for 9 consecutive days. On the tenth day of once-daily relacorilant dosing, a single dose of midazolam 2.5 mg was administered in combination with relacorilant 350 mg and intensive PK samples were again collected at pre-dose though 24 hours post-dose. On the following day, a single dose of 15 mg of pioglitazone was administered in combination with relacorilant 350 mg and intensive pharmacokinetic (PK) samples were again collected at pre-dose through 72 hours post-dose. The plasma concentrations of midazolam and its metabolite, 1-OH midazolam, and pioglitazone and its metabolite, pioglitazone M4 were evaluated by validated bioanalytical assays on each of dosing occasions of midazolam or pioglitazone.
# [4] = Pharmacokinetics of nab-paclitaxel alone or with relacorilant in patients with advanced solid tumors (Study CORT125134-550); format: in vivo, human; conditions: cancer patients; same dose administered alone as comparison
# Excerpt: The combination of relacorilant and nab-paclitaxel has been evaluated in patients with advanced solid tumors.
# [5] = molecular target: T2, CYP2C8; test: In vitro CYP inhibition assay, Assay 1 (3-CYP mix); format: in vitro ADME; set-up: from tissue; host or cells: healthy human subjects, in vivo (endogenous enzyme); conditions: CYP2C8 expressed in E. coli, substrate amodiaquine, 10 min incubation, 37° C., pH 7.4
# Experimental: Cytochrome P450 (CYP) isoforms CYP2B6, CYP2C8 and CYP3A5, heterologously expressed in E. coli, were obtained from Cypex and mixed to produce a 3-CYP mix. […] A selective and FDA accepted substrate for each isoform was present in the reaction at a concentration around its Km.
# (§2) The CYP mix and a CYP substrate cocktail were added and the tubes warmed for 3 minutes whilst mixing on a BioShake IQ (37° C., 1500 rpm). NADPH (final concentration 1 mM) was added and the mixture was incubated for 10 minutes. Methanol containing an internal standard (1 μM tolbutamide) was then added to all samples, and these were mixed and placed at −20° C. for ≥1 hour to quench the reaction and allow protein to precipitate.
# All samples were centrifuged (2500×g, 20 minutes, 4° C.). The supernatants were transferred to a fresh 96 well plate, compatible with an autosampler. The plate was sealed with a pre-slit silicone mat and the metabolites were analyzed by LC-MS/MS.
# Control CYP inhibitors (IC50—appropriate concentration range, final assay concentration 1% DMSO) were added as a cocktail. […]
# In Assay 1, the final concentration of the 3-CYP mix was 18 pmol/mL for CYP2B6 (where pmol is picomoles), 1 pmol/mL for CYP2C and 5 pmol/mL for CYP3A5. […] The metabolites measured were: CYP2B6, hydroxybupropion; CYP2C8, N-desethyl amodiaquine; CYP3A5, 1′-hydroxymidazolam. […]
# [6] = molecular target: T1, CYP3A4; test: In vitro CYP inhibition assay, Assay 2 (5-CYP mix); format: in vitro ADME; set-up: from tissue; host or cells: healthy human subjects, in vivo (endogenous enzyme); conditions: CYP3A4 expressed in E. coli, substrate midazolam, 10 min incubation, 37° C., pH 7.4
# Experimental: In a separate assay, isoforms for CYP1A2, CYP2C9, CYP2C19, CYP2D6, and CYP3A4 heterologously expressed in E. coli and obtained from Cypex as a custom made mixture of 5 isoforms. A selective and FDA accepted substrate for each isoform was present in the reaction at a concentration around its Km.
# as §2
# All samples were centrifuged (2500×g, 20 minutes, 4° C.). […] The plate was sealed with a pre-slit silicone mat and the metabolites were analyzed by LC-MS/MS. […]
# In Assay 2, the final concentration of the 5-CYP mix was 32.5 pmol/ml for each of the enzymes evaluated (i.e., CYP1A2, CYP2C9, CYP2C19, CYP2D6, and CYP3A4). […]
# In Assay 2, the CYP substrate cocktail comprised the following components: CYP1A2, tacrine; CYP2C9, diclofenac; CYP2C19, (S)mephenytoin; CYP2D6, bufuralol; CYP3A4, midazolam. The metabolites measured were: CYP1A2, 1-hydroxytacrine; CYP2C9, 4′-hydroxydiclofenac; CYP2C19, 4′-hydroxymephenytoin; CYP2D6, hydroxybufuralol; CYP3A4, 1′-hydroxymidazolam. […]
# [7] = 100 * Test/Reference, pioglitazone with 350 mg relacorilant (Day 15) vs pioglitazone alone (Day 2)
# [8] = plasma, healthy subjects, single oral 2.5 mg midazolam hydrochloride alone, Day 1
# [9] = plasma, healthy subjects, single oral 2.5 mg midazolam hydrochloride with 350 mg relacorilant, Day 14
smiles,measurement,setting,value
"Cc1ncc2n1-c1ccc(Cl)cc1C(c1ccccc1F)=NC2 [Midazolam, midazolam]","AUC0-tz, Ratio of Geometric LSMs (%)",[1],878.43%
same,"AUCinf, Ratio of Geometric LSMs (%)",[1],892.81%
same,"Cmax, Ratio of Geometric LSMs (%)",[1],310.98%
same,"increase in plasma exposure (AUCinf) when administered with relacorilant, relative to midazolam alone","[1]; healthy subjects, once daily relacorilant 350 mg",8 fold and > 8 fold
same,AUC(0-inf),[2],33 ng·h/mL
same,AUC(0-t),[2],30.9 ng·h/mL
same,Cmax,[2],11.8 ng/mL
"CCc1ccc(CCOc2ccc(CC3SC(=O)NC3=O)cc2)nc1 (stereo not drawn) [Pioglitazone, pioglitazone]","AUC0-tz, Ratio of Geometric LSMs (%)",[3]; [7],74.71%
same,"AUCinf, Ratio of Geometric LSMs (%)",[3]; [7],74.83%
same,"Cmax, Ratio of Geometric LSMs (%)",[3]; [7],77.82%
same,change in plasma exposure/concentration when administered with relacorilant,"[3]; healthy volunteers, once daily relacorilant 350 mg, pioglitazone 15 mg",no increase; also recorded: did not increase
same,AUC(0-inf),"[3]; human, plasma, po, 15 mg",5410 ng·h/mL
same,AUC(0-t),"[3]; human, plasma, po, 15 mg",5290 ng·h/mL
same,Cmax,"[3]; human, plasma, po, 15 mg",484 ng/mL
CC(=O)O[C@H]1C(=O)[C@@]2(C)[C@H]([C@H](OC(=O)c3ccccc3)[C@]3(O)C[C@H](OC(=O)[C@H](O)[C@@H](NC(=O)c4ccccc4)c4ccccc4)C(C)=C1C3(C)C)[C@]1(OC(C)=O)CO[C@@H]1C[C@@H]2O [paclitaxel],"increase in plasma levels/exposure (AUC) when co-administered with relacorilant, relative to alone",[4],about 80%
OCc1ncc2n1-c1ccc(Cl)cc1C(c1ccccc1F)=NC2 [1-OH midazolam],"AUC0-tz, Ratio of Geometric LSMs (%)",[1],796.64%
same,"AUCinf, Ratio of Geometric LSMs (%)",[1],814.51%
same,"Cmax, Ratio of Geometric LSMs (%)",[1],164.86%
same,"AUC0-tz, Geometric LSM, Reference (Day 1) Treatment A",[1]; [8],9.360 ng·h/mL
same,"AUCinf, Geometric LSM, Reference (Day 1) Treatment A",[1]; [8],10.28 ng·h/mL
same,"Cmax, Geometric LSM, Reference (Day 1) Treatment A",[1]; [8],4.038 ng/mL
same,"AUC0-tz, Geometric LSM, Test (Day 14) Treatment D",[1]; [9],74.56 ng·h/mL
same,"AUCinf, Geometric LSM, Test (Day 14) Treatment D",[1]; [9],83.72 ng·h/mL
same,"Cmax, Geometric LSM, Test (Day 14) Treatment D",[1]; [9],6.657 ng/mL
CC(O)c1ccc(CCOc2ccc(CC3SC(=O)NC3=O)cc2)nc1 (stereo not drawn) [Pioglitazone M4],"AUC0-tz, Geometric LSM, Reference (Day 2) Treatment B","[3]; human, in vivo, po, 15 mg",10460 ng·h/mL
same,"AUCinf, Geometric LSM, Reference (Day 2) Treatment B","[3]; human, in vivo, po, 15 mg",12890 ng·h/mL
same,"Cmax, Geometric LSM, Reference (Day 2) Treatment B","[3]; human, in vivo, po, 15 mg",237.3 ng/mL
"Cn1cc(S(=O)(=O)N2CCC3=Cc4c(cnn4-c4ccc(F)cc4)C[C@]3(C(=O)c3cc(C(F)(F)F)ccn3)C2)cn1 [relacorilant, (R)-(1-(4-fluorophenyl)-6-((1-methyl-1H-pyrazol-4-yl)sulfonyl)-4,4a,5,6,7,8-hexahydro-1H-pyrazolo[3,4-g]isoquinolin-4a-yl)(4-(trifluoromethyl)pyridine-2-yl)methanone]",IC50,[5],210 nM
same,IC50,[6],1320 nM
same,inhibition of CYP2C8 in vivo,"[3]; healthy subjects, once daily relacorilant 350 mg, probe pioglitazone",does not inhibit
